From patent US10611728B2, “Isoindoline compositions and methods for treating neurodegenerative disease” (priority 2014, dated 2020)

Tests used:
[1] = Microsomal stability in mouse liver microsomes (MLM); type: in vitro ADME
Method: A first pharmacokinetic study was performed in microsomes of mice mouse liver microsomes, MLM) by a commercial contract research organization. The studies were performed according to Obach, R. S et al. (1997) J. Pharmacol. Exp. Ther., 283: 46-58, which is incorporated herein by reference.

[2] = test system: Abeta oligomer-induced synapse loss in primary hippocampal neurons; test: Abeta 1-42 oligomer synapse loss assay; type: cell-based, rat; details: Abeta 42 oligomers
Method: In this assay, Abeta oligomers are brought in contact with mature primary neurons in culture and their binding was determined by immunohistochemistry (anti-Abeta antibody) and quantified by image processing. The amount of Abeta in neuronal dendrites is assessed by counting the number of labeled puncta on the neuritis. […] This labeling is associated with synapses, co-localizing with the post-synaptic scaffold protein PSD-95 (Lacor et al., '04). […] The number of synapses can also be quantified in this assay by immunofluorochemistry.
Primary hippocampal neuronal culture is established as in the membrane trafficking assay above. […] Pretreatment with test compounds for 1 hr and addition of Abeta oligomers or no oligomer (vehicle alone) is followed by incubation for an additional 23 hrs.
The plates are then washed 3× with PBS for 5 min each. The plates are blocked at RT for 1 hr in 5% goat serum and 0.5% Triton X-100 in PBS. Primary antibodies (anti-MAP 2 polyclonal, Millipore # AB5622 and anti-Beta Amyloid 6E10 monoclonal, Covance # SIG-39300, at 1 microgram/ml, and rabbit polyclonal anti-synaptophysin, Anaspec, at 0.2 microgram/ml) were diluted 1:1000 in 5% goat serum with PBS. Primary antibodies are incubated overnight at 4° C. The plates are then washed 3× with PBS for 5 min each. Secondary antibodies (Alex Flor 488 polyclonal, Invitrogen # A11008 and Alexa Flor 647 monoclonal, Invitrogen # A21235) are diluted 1:1000 in 5% goat serum with PBS. Secondary antibodies are incubated at RT for 1 hr. The plates are washed once with PBS. DAPI (4′,6-diamidino-2-phenylindole, Invitrogen) is then applied at 0.03 ug/ul and incubated at RT for 5 min, then washed with PBS.

[3] = half-life in mouse liver microsomes

Mouse liver microsomes, MLM t½ ([1]; mouse, microsomes) [min]	Compound	other results
9	CC(C)COc1cc(CCC(C)(C)N2Cc3cccc(C(=O)N4CCOCC4)c3C2)ccc1O [compound 90]	
34	CC(C)(CCc1ccc(O)c(OC(F)(F)F)c1)N1Cc2c(F)ccc(F)c2C1 [compound 55]	
6	CC(C)Oc1ccc(CC[C@@H](C)N2Cc3cc4c(cc3C2)OCO4)cc1OC(C)C [compound 40]	
43	COc1cc2c(cc1OC)CN([C@@H](C)CCc1ccc(Cl)c(Cl)c1)C2 [compound 20]	
16	COc1cc(CC[C@@H](C)N2Cc3cccc(F)c3C2)ccc1O [compound 8]	
12	C[C@H](CCc1ccc(Cl)c(Cl)c1)N1Cc2cccc(Cl)c2C1.Cl [compound 16]	
	CCC(Oc1ccc(Cl)cc1)C(=O)OC1CC2CCC(C1)N2C (stereo not drawn) [SM-21]	elimination of Abeta oligomer-induced synapse loss [2]: only weakly active in eliminating synapse loss; recovery of synapse loss [2]: 20%
6	C[C@H](CCc1ccc(O)c(OC(F)(F)F)c1)N1Cc2ccc(F)cc2C1 [compound 31]	
66	COc1cc(CC[C@@H](C)N2Cc3cccc(F)c3C2)ccc1OCCO [compound 51]	
	COc1cc2c(cc1OC)CN([C@H](C)CCc1ccc(Cl)c(Cl)c1)C2 [compound 11]	Mouse liver microsomes, MLM t½ [1, 3]: 61 min
28	COc1cc(CC[C@@H](C)N2Cc3ccc(C(F)(F)F)cc3C2)ccc1O [compound 2]	
79	CC(C)Oc1cc(CCC(C)(C)N2Cc3ccc(S(C)(=O)=O)cc3C2)ccc1O [compound 70]	
53	C[C@H](CCc1ccc(Cl)c(Cl)c1)N1Cc2cc(Cl)c(Cl)cc2C1 [compound 5]	
5	COC[C@H](CCc1ccc(Cl)c(Cl)c1)N1Cc2ccc(F)cc2C1 [compound 46]	
7	C[C@H](CCc1ccc(F)cc1)N1Cc2ccc(F)cc2C1 [compound 22]	
19	COCCN(C)C(=O)c1cccc2c1CN(C(C)(C)CCc1ccc(O)c(OC)c1)C2 [compound 86]	
75	CC(C)Oc1cc(CC[C@@H](C)N2Cc3ccc(S(C)(=O)=O)cc3C2)ccc1O [compound 69]	
29	COc1cc(CCC(C)(C)N2Cc3cccc(F)c3C2)ccc1OCCO [compound 44]	
26	CN(C)C(=O)c1cccc2c1CN(C(C)(C)CCc1ccc(O)c(OC(F)(F)F)c1)C2 [compound 57]	
31	C[C@H](CCc1ccc(O)c(OC(C)(C)C)c1)N1Cc2ccc(S(C)(=O)=O)cc2C1 [compound 63]	
97	COc1cc(CC[C@@H](C)N2Cc3cc4c(cc3C2)OCO4)ccc1OCCO [compound 52]	
52	COc1cc(CCC(C)(C)N2Cc3cccc(S(C)(=O)=O)c3C2)ccc1O [compound 64]	
13	C[C@H](CCc1ccc(Cl)c(Cl)c1)N1Cc2ccc(F)cc2C1.Cl [compound 12]	

Mouse liver microsomes, MLM t½ ([1]; mouse, microsomes) [min]	Compound	other results
11	COc1cc(CC[C@@H](C)N2Cc3ccc(Cl)cc3C2)ccc1O [compound 1]	
8	C[C@H](CCc1ccc(O)c(OC(C)(C)C)c1)N1Cc2cccc(F)c2C1 [60B]	
	COc1cc(CC[C@@H](C)N2Cc3cc4c(cc3C2)OCO4)ccc1O [compound 6]	Mouse liver microsomes, MLM t½ [1, 3]: 20 min
39	CC(C)(CCc1ccc(O)c(OC(F)(F)F)c1)N1Cc2cccc(S(C)(=O)=O)c2C1 [compound 67]	
15	COc1ccc2c(c1)CN([C@H](C)CCc1ccc(Cl)c(Cl)c1)C2.Cl [compound 15]	
5	C[C@H](CCc1ccc(O)c(OC(C)(C)C)c1)N1Cc2c(F)ccc(F)c2C1 [60A]	
17	CC(C)COc1cc(CCC(C)(C)N2Cc3cccc(C(=O)N(C)C)c3C2)ccc1O [compound 89]	
91	COc1cc(CCC(C)(C)N2Cc3cc4c(cc3C2)OCO4)ccc1OCCO [compound 47]	
3	Cc1ccc2c(c1)CN([C@H](C)CCc1ccc(Cl)c(Cl)c1)C2 [compound 13]	
28	CC(C)COc1cc(CCC(C)(C)N2Cc3cccc(F)c3C2)ccc1O [compound 88]	
8	CN(C)C(=O)c1cccc2c1CN(C(C)(C)CCc1ccc(O)c(OC(C)(C)C)c1)C2 [compound 59]	
9	CC(C)(CCc1ccc(F)cc1)N1Cc2cccc(F)c2C1 [compound 33]	
41	COc1cc(CC[C@@H](C)N2Cc3cccc(S(C)(=O)=O)c3C2)ccc1O [compound 65]	
40	C[C@H](CCc1ccc(Cl)c(Cl)c1)N1Cc2ccc(C(F)(F)F)cc2C1 [compound 4]	
47	CC(C)(CCc1ccc(F)cc1)N1Cc2cc3c(cc2C1)OCO3 [compound 36]	
7	CC(=O)N1CCN(C(=O)c2cccc3c2CN(C(C)(C)CCc2ccc(O)c(OCC(C)C)c2)C3)CC1 [compound 92]	
	O=C(CCCN1CCC(O)(c2ccc(Cl)cc2)CC1)c1ccc(F)cc1 [haloperidol]	elimination of Abeta oligomer-induced synapse loss [2]: completely eliminated synapse loss
4	CC(C)Oc1cc(CCC(C)(C)N2Cc3cccc(F)c3C2)ccc1O [compound 28]	
8	C[C@H](CCc1ccc(Cl)c(Cl)c1)N1Cc2cc3c(cc2C1)OCO3 [compound 10]	
450	COc1cc(CCC(C)(C)N2Cc3cccc(C(=O)NCCN(C)C)c3C2)ccc1O [compound 78]	
10	COc1cc(CCC(C)N2Cc3ccc4ccccc4c3C2)ccc1O.Cl (stereo not drawn) [compound 17]	
21	CC(C)(C)Oc1cc(CCC(C)(C)N2Cc3c(F)ccc(F)c3C2)ccc1O [compound 74]	
88	COc1cc(CCC(C)(C)N2Cc3cccc(C(=O)N(C)CCN(C)C)c3C2)ccc1O [compound 81]	

Mouse liver microsomes, MLM t½ ([1]; mouse, microsomes) [min]	Compound	other results
7	C[C@H](CCc1ccc(F)cc1)N1Cc2cccc(F)c2C1 [compound 21]	
14	CC(C)Oc1ccc(CCC(C)(C)N2Cc3ccc(F)cc3C2)cc1OC(C)C [compound 42]	
21	COc1cc(CC[C@@H](C)N2Cc3cc(Cl)c(Cl)cc3C2)ccc1O [compound 3]	
21	COc1cc(CCC(C)(C)N2Cc3cccc(F)c3C2)ccc1O [compound 53]	
96	COc1cc(CCC(C)(C)N2Cc3ccc(F)cc3C2)ccc1OCCO [compound 45]	
	CCCN(CCC)CCc1ccc(OC)c(OCCc2ccccc2)c1 [NE-100]	elimination of Abeta oligomer-induced synapse loss [2]: completely eliminated synapse loss
14	CC(C)(CCc1ccc(O)c(OC(F)(F)F)c1)N1Cc2cccc(C(=O)N3CCOCC3)c2C1 [compound 94]	
27	COc1cc(CCC(C)(C)N2Cc3cccc(C(=O)N4CCN(C)CC4)c3C2)ccc1O [compound 82]	
6	CC(C)COc1cc(CCC(C)(C)N2Cc3cccc(C(=O)N4CCN(C)CC4)c3C2)ccc1O [compound 91]	
5	C[C@H](CCc1ccc(O)c(OC(F)(F)F)c1)N1Cc2cc3c(cc2C1)OCO3 [compound 24]	
45	COc1cc(CCC(C)(C)N2Cc3cccc(C(=O)N4CCOCC4)c3C2)ccc1O [compound 80]	
9	CC(C)(CCc1ccc(F)cc1)N1Cc2ccc(F)cc2C1 [compound 35]	
4	CC(C)Oc1cc(CC[C@@H](C)N2Cc3cccc(F)c3C2)ccc1O [compound 26]	
5	CC(C)Oc1cc(CC[C@@H](C)N2Cc3ccc(F)cc3C2)ccc1O [compound 37]	
45	CC(C)(C)Oc1cc(CCC(C)(C)N2Cc3ccc(S(C)(=O)=O)cc3C2)ccc1O [compound 62]	
12	CC(C)(CCc1ccc(O)c(OC(F)(F)F)c1)N1Cc2cccc(F)c2C1 [compound 54]	
46	COc1cc2c(cc1OC)CN(C(C)(C)CCc1ccc(F)cc1)C2 [compound 34]	
5	C[C@H](CCc1ccc(F)cc1)N1Cc2cc3c(cc2C1)OCO3 [compound 23]	
25	C[C@H](CCc1ccc(Cl)c(Cl)c1)N1Cc2ccc3ccccc3c2C1 [compound 19]	
10	CC(C)(C)Oc1cc(CCC(C)(C)N2Cc3cccc(S(C)(=O)=O)c3C2)ccc1O [compound 66]	
5	CN1CCN(C(=O)c2cccc3c2CN(C(C)(C)CCc2ccc(O)c(OC(F)(F)F)c2)C3)CC1 [compound 93]	
86	CC(C)COc1cc(CCC(C)(C)N2Cc3ccc(S(C)(=O)=O)cc3C2)ccc1O [compound 87]	

Compound	Mouse liver microsomes, MLM t½ ([1]; mouse, microsomes) [min]	other results
C[C@H](CCc1ccc(OC(=O)N(C)C)c(OC(F)(F)F)c1)N1Cc2ccc(F)cc2C1 [compound 43]	5	
C[C@H](CCc1ccc(Cl)c(Cl)c1)N1Cc2cccc(F)c2C1 [compound 9]	12	
COc1cc(CCC(C)(C)N2Cc3ccc(F)cc3C2)ccc1OC(=O)N(C)C [compound 50]	33	
